Measurements from patent US6689756B2, “Treatment of neurological disease” (Integra LifeSciences Corporation, priority 2001, dated 2004).

Assay: oxygen carrying capacity of nutrient formulation
Type: physicochemical
Details: F44E formulations compared with the perfluorodecalin nutrient solution of Bell et al., Neurology 37:133, 1987
Description: where m and n or independently at least 1 and m+n equals 6 to 10. Preferably, the double bond is trans. One preferred poly-fluorinated, oxygen-carrying compound is trans-Bis-perfluorobutyl ethylene (m and n each equal 4), which is also known as F44E. F44E formulations have a 25% greater oxygen carrying capacity than that of a prior nutrient solution made with perfluorodecalin, Bell et al., Neurology 37:133, 1987. Formulations comprising F44E are less viscous and relatively easier to perfuse.

Q: Which “greater oxygen carrying capacity than that of a prior nutrient solution made with perfluorodecalin” value does the source give for `FC(F)(F)C(F)(F)C(F)(F)C(F)(F)/C=C/C(F)(F)C(F)(F)C(F)(F)C(F)(F)F` [F44E, trans-Bis-perfluorobutyl ethylene] here?
A: 25%
